Data reported in patent US20030175912A1, “Method of producing L-serine by fermentation” (AJINOMOTO CO. INC, priority 1998, published 2003).

How the values were obtained:
[1] = test system: Brevibacterium flavum AJ13325; assay: Growth in the presence of β-(2-thienyl)-DL-alanine; assay type: cell-based; settings: 0.25 g/L of β-(2-thienyl)-DL-alanine
Method: Similarly, the term “β-(2-thienyl)-DL-alanine resistance” refers to the property that a bacterium grows faster than the wild type in a medium containing β-(2-thienyl)-DL-alanine. For example, those strains that form colonies on a solid medium containing 0.25 g/L of β-(2-thienyl)-DL-alanine at 30° C. within 4 to 5 days are said to have β-(2-thienyl)-DL-alanine resistance.
(§1) To select β-(2-thienyl)-DL-alanine resistant strains from NG treated strains using Brevibacterium flavum AJ13377 as a parent strain, Brevibacterium flavum AJ13377 cells were NG treated and washed before their inoculation on a minimal medium for selection. The minimal medium for selection was a medium that contained 20 g of glucose, 1 g of ammonium sulfate, 1 g of potassium dihydrogen phosphate, 2.5 g of urea, 0.4 g of magnesium sulfate heptahydrate, 0.01 g of iron (II) sulfate heptahydrate, 0.01 g of manganese sulfate tetra- to pentahydrate, 50 μg of biotin, 200 μg of thiamin hydrochloride, 200 μg of nicotinic acid amide, and 250 mg of β-(2-thienyl)-DL-alanine per liter of distilled water. The NG treated mutant was incubated in the above-described medium at 30° C. for 5 to 10 days. The cell culture thus obtained was spread on a bouillon agar medium and incubated at 30° C. for 24 hours for colony formation. β-(2-Thienyl)-DL-alanine resistant strains were obtained from the strains that formed colonies. […]

[2] = test system: 3-PGDH derived from AJ13325 strain; assay: Feedback inhibition of 3-PGDH by L-serine, enzyme of AJ13325; assay type: biochemical, Brevibacterium flavum; settings: compared with AJ13324; FIG. 1
Method: (§2) After collecting cells from the culture broth of each strain, the cells were washed twice with physiological saline and suspended in 50 mM sodium phosphate buffer (pH 7.0) containing 2 mM dithiothreitol. After ice cooling, the suspension was subjected to a sonicator to fragment the cells and the resulting liquid was ultracentrifuged. The ultracentrifugaton was run at 45,000 rpm for 1 hour to obtain a crude enzyme solution.
(§3) The enzyme activity of 3-PGDH was measured by the method of Salach H. J. et al. (Method in Enzymology, vol 9, 216-220 (1966)).
(§4) More specifically, 0.4 ml of 0.015 M NAD, 0.12 ml of 0.25 M EDTA (pH 9, NaOH), 0.1 ml of 0.05 M glutathione (pH 6, KOH), 0.5 ml of 1 M hydrazine (pH 9, acetate), 0.6 ml of 1 M Tris (pH 9, HCl), a suitable concentration of L-serine (0 to 40 mM), and water to make 2.3 ml, warmed to 25° C. in advance, were added. Then, 0.2 ml of the crude enzyme solution was added and the temperature was kept the same for 5 minutes. Thereafter, 0.5 ml of 0.1 M 3-PGA (3-phosphoglycerate disodium salt, pH 7, NaOH) was added. After stirring, the absorbance at 340 nm of the reaction mixture was measured for 30 seconds. The reaction was carried out at 25° C.
(§5) For the measurement of activity, Hitachi U-2000A spectrophotometer was used.

[3] = test system: 3-PGDH derived from AJ13324 strain; assay: Feedback inhibition of 3-PGDH by L-serine, enzyme of AJ13324; assay type: biochemical, Brevibacterium flavum; settings: compared with AJ13377; FIG. 1
Method: as §2, §3, §4, §5

[4] = test system: 3-PGDH derived from Brevibacterium flavum AJ13327; assay: Feedback inhibition of 3-PGDH by L-serine, enzyme of AJ13327; assay type: biochemical
Method: as §2, §3
[…] Then, 0.2 ml of the crude enzyme solution was added and the temperature was kept the same for 5 minutes. Thereafter, 0.5 ml of 0.1 M 3-PGA (3-phosphoglycerate disodium salt, pH 7, NaOH) was added. After stirring, the absorbance at 340 nm of the reaction mixture was measured for 30 seconds. The reaction was carried out at 25° C.
as §5

[5] = test system: 3-PGDH derived from AJ13377 strain; assay: Feedback inhibition of 3-PGDH by L-serine, enzyme of AJ13377; assay type: biochemical, Brevibacterium flavum; settings: compared with wild type strain ATCC 14067; FIG. 1
Method: as §2, §3, §4, §5

[6] = test system: 3-PGDH derived from a wild type coryneform bacterium (ATCC 14067); assay: Feedback inhibition of 3-PGDH by L-serine, enzyme of wild type strain; assay type: biochemical, Brevibacterium flavum; settings: 10 mM of L-serine
Method: as §2, §3, §4, §5

[7] = test system: Brevibacterium flavum AJ13324 and AJ13327; assay: Growth in the presence of azaserine; assay type: cell-based; settings: 0.25 g/L of azaserine
Method: More specifically, for example, the term “azaserine resistance” refers to the property that a bacterium grows faster than the wild type in a medium containing azaserine. For example, those strains that form colonies on a solid medium containing 0.25 g/L of azaserine at 30° C. within 4 to 5 days are said to have azaserine resistance.
as §1, with “azaserine” for “β-(2-thienyl)-DL-alanine”, “strain, NG treated” for “strain,”, “cells after washed” for “cells”, “inoculated” for “NG treated and washed before their inoculation”, “Azaserine” for “β-(2-Thienyl)-DL-alanine”, “colonies. The mutants thus obtained included many strains that accumulated L-serine in considerable amounts at high yields.” for “colonies.”

For `NC(Cc1cccs1)C(=O)O` (racemic) [β-(2-thienyl)-DL-alanine], the “growth of resistant strains in the presence of β-(2-thienyl)-DL-alanine” value [1] was “able to grow”.
`N[C@@H](CO)C(=O)O` [L-serine] was tested, and the “L-serine sensitivity of 3-PGDH” value [2] was “of the same level as the AJ13324 strain”, the “L-serine sensitivity of 3-PGDH” value [3] was “more relieved of L-serine sensitivity” and the “feedback inhibition of 3-PGDH by L-serine” value ([4]; 80 mM L-serine, FIG. 1) was “completely desensitized”. For the same compound, the “3-PGDH activity retained in the presence of L-serine” value ([4]; 80 mM of L-serine, relative to activity in the absence of L-serine) was ~100%, the “L-serine sensitivity of 3-PGDH” value [5] was “relieved of L-serine sensitivity” and the “inhibition of 3-PGDH activity by L-serine” value [6] was “almost completely inhibited”.
`[N-]=[N+]=CC(=O)OC[C@H](N)C(=O)O` [azaserine] was tested, and the “growth of resistant strains in the presence of azaserine” value [7] was “able to grow”.
